Assay results as given in ChEMBL document CHEMBL1201862, “PubChem BioAssay data set” (2004).
The source made the active and inactive calls.

Key:
Streptococcus = test: Group A Streptococcus viability loss, dose response, counter-screen for streptokinase expression inhibitor project, luminescence, BacTiterGlo (AID 1915); type: functional, organism-based;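 note: potency for reduction of bacterial viability or growth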
Nonstructural protein 1 = Nonstructural protein 1 (Influenza A virus, UniProt Q194T2); type: functional, Influenza A virus (A/California/07/2009(H1N1))
Paired box protein Pax-8 = Paired box protein Pax-8 (Homo sapiens, UniProt Q06710); test: inhibitors of PAX8-driven TPO luciferase reporter, dose response, RMG-I cells, cherry-pick (AID 687027); type: functional, cell-based;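 note: luciferase reporter driven by Pax8 target thyroperoxidase promoter measured by SteadyGlo luminescence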
INS1 = test: beta cell apoptosis inhibitors, cytokine rescue, dose response, luminescence, retest (AID 449756); type: functional, cell-based; settings: Rattus norvegicus;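 note: cell death triggered by IL-1 beta plus TNF-alpha plus IFN-gamma mixture; protective hits raise ATP signal compared with cytokine alone wells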
[1] = C. albicans growth with fluconazole, confirmation, fluorescence, retest (AID 2467); type: functional, cell-based
[2] = Luminescence-based counterscreen assay for KLF5 inhibitors: dose response cell-based high throughput screening assay to identify cytotoxic compounds using the IEC-6 intestinal epithelial cell line. [Related pubchem assays: 1700 (Primary screen.), 1834 (Confirmation screen.), 1858 (Summary AID.), 1905 (Counterscreen.)]; type: functional
[3] = biological target: T1, Serine/threonine-protein phosphatase (Candida dubliniensis (strain CD36 / CBS 7987 / NCPF 3949 / NRRLY-17841) (Yeast), UniProt B9W6M3); test: calcineurin pathway inhibitors in yeast reporter, dose response, S. cerevisiae, CDRE-lacZ, luminescence, secondary (AID 2388); type: functional, cell-based;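 note: yeast reporter cells carrying a calcineurin-responsive lacZ construct stimulated with calcium chloride; luminescent beta-galactosidase reporter signal in whole cells rather than isolated phosphatase activity; potency for inhibition where a drop in reporter signal means calcineurin blockade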
T1 sequence (B9W6M3 whole entry): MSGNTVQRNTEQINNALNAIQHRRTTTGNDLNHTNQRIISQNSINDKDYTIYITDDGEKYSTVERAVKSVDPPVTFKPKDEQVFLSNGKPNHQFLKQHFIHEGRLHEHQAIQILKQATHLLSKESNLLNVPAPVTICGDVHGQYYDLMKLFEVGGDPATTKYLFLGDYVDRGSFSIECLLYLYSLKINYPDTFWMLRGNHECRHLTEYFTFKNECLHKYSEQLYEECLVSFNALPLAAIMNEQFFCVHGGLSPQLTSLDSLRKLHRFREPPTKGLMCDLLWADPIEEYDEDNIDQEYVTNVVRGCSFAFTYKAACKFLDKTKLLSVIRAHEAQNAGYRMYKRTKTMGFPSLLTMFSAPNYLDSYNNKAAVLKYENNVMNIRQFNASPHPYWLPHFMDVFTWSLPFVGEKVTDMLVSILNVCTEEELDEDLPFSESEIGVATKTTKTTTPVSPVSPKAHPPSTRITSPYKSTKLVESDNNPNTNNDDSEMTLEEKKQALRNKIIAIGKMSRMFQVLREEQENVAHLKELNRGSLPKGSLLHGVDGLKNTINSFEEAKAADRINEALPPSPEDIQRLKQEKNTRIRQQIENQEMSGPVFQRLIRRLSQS

[4] = NIH-3T3 fibroblast cytotoxicity, dose response, cytotoxicity control, cell-based, fluorescence, Alamar Blue, secondary assay (AID 2327); type: functional;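 note: NIH-3T3 mouse fibroblasts cultured with fluconazole at 8 µg/mL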
[5] = biological target: ATP-dependent molecular chaperone HSP82 (Candida albicans (strain WO-1) (Yeast), UniProt C4YTQ8); test: loss of DOC-induced GRE-beta-galactosidase reporter signal, dose response, Hsp90 inhibitor project, S. cerevisiae, luminescence (AID 2400); type: functional, cell-based;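 note: beta-galactosidase luminescence from glucocorticoid response element reporter as proxy for Hsp90 function; inhibitor potency where signal loss means Hsp90 inhibition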
[6] = tested on: Streptococcus sp. 'group A'; test: growth inhibition of control SK(-) GAS strain, dose response, counter-screen for streptokinase expression inhibitor project, luminescence, kanamycin, BacTiterGlo, confirmation (AID 1900); type: functional, organism-based
[7] = biological target: T2, Alkaline phosphatase, tissue-nonspecific isozyme (Homo sapiens, UniProt P05186)
T2 sequence (P05186 whole entry): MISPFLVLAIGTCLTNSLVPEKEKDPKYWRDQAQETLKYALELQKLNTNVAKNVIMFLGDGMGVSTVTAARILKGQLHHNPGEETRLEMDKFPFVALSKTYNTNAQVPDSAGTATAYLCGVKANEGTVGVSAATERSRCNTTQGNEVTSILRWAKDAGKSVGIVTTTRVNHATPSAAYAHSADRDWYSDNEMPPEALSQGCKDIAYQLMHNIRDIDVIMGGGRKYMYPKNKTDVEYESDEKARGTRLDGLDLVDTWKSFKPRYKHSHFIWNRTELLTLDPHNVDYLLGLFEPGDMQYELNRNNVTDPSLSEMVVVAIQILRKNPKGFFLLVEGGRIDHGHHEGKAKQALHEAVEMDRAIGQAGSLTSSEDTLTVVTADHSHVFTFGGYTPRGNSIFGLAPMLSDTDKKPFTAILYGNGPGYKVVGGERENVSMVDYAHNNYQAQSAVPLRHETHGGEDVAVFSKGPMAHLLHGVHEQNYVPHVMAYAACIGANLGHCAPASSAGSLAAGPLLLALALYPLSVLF

Ion channel NompC = Ion channel NompC (Danio rerio, UniProt Q7T1G6); test: Fluorescence counterscreen assay for TRPML3 agonists: dose response cell-based high-throughput screening assay to identify agonists of the transient receptor potential channel N1 (TRPN1). [Related pubchem assays: 1526, 1424, 1448 ]; type: functional
Mucolipin-3 = biological target: T3, Mucolipin-3 (Homo sapiens, UniProt Q8TDD5); test: Dose response cell-based high-throughput screening assay for agonists of the transient receptor potential channel ML3 (TRPML3). [Related pubchem assays: 1526, 1424, 1448 ]; type: functional
T3 sequence (Q8TDD5 whole entry): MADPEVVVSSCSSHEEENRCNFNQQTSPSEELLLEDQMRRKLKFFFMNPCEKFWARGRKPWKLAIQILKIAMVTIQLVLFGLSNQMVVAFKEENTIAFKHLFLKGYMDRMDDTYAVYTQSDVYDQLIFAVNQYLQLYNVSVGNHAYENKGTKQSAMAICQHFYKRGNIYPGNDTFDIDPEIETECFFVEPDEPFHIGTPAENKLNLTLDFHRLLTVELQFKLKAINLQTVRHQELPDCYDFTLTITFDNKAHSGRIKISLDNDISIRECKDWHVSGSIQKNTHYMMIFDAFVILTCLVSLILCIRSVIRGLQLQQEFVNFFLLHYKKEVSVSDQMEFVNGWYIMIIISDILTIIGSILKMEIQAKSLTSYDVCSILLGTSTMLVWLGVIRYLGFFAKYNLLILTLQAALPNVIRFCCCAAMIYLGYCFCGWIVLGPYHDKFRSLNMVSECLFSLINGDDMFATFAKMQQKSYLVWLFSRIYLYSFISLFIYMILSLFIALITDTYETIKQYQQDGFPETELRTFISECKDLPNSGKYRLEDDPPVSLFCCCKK

Hexokinase HKDC1 = Hexokinase HKDC1 (Homo sapiens, UniProt Q2TB90); test: HKDC1 hexokinase inhibitors, dose response, biochemical, W721R variant (AID 504729); type: functional
[8] = inhibitors of intracellular T. cruzi replication, confirmation, NIH3T3 host cells, beta-gal luminescence (AID 2044); type: functional, cell-based;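 note: intracellular parasites grown in NIH/3T3 mouse fibroblasts as host cells; luminescent beta-galactosidase reporter signal from transgenic T. cruzi replicating inside host cells; inhibitors lower the luminescence signal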
[9] = cytotoxicity toward NIH3T3 fibroblasts, dose response, counter-screen, cell-based, ATP luminescence, mouse fibroblasts (AID 2010); type: functional;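 note: cells exposed to compound for about 90 hours before reading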
[10] = biological target: T4, Kappa-type opioid receptor (Homo sapiens, UniProt P41145); type: functional
[11] = biological target: T4, Kappa-type opioid receptor; type: functional; remark: listed apart in the source
Beta-galactosidase = Beta-galactosidase (Escherichia coli, UniProt Q8VNN2); type: functional
Beta-galactosidase, sequence (Q8VNN2 whole entry): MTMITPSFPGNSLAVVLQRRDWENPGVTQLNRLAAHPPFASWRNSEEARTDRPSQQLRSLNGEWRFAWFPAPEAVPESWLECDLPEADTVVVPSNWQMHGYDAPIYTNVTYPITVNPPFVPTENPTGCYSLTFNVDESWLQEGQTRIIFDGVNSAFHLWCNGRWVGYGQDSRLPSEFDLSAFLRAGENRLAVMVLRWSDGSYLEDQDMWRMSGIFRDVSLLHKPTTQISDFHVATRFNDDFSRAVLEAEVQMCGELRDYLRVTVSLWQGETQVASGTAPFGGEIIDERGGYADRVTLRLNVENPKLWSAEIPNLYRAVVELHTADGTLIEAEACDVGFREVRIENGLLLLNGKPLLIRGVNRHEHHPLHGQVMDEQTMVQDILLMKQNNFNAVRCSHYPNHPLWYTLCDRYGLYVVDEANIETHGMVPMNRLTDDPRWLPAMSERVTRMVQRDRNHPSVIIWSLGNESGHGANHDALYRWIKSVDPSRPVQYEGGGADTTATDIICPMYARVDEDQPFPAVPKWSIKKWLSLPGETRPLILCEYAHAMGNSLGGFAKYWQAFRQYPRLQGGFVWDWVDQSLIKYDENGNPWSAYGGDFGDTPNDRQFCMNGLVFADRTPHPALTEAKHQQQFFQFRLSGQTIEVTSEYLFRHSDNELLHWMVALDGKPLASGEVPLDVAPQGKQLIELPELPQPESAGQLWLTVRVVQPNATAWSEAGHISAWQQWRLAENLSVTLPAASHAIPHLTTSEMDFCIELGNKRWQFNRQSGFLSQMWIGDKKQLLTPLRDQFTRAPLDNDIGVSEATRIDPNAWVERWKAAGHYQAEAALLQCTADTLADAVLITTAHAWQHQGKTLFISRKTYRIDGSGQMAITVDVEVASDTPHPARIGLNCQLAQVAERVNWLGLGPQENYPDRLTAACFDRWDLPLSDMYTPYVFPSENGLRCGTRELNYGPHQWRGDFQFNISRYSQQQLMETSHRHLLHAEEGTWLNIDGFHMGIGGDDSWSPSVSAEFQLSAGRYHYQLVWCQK

T4 sequence (P41145 whole entry): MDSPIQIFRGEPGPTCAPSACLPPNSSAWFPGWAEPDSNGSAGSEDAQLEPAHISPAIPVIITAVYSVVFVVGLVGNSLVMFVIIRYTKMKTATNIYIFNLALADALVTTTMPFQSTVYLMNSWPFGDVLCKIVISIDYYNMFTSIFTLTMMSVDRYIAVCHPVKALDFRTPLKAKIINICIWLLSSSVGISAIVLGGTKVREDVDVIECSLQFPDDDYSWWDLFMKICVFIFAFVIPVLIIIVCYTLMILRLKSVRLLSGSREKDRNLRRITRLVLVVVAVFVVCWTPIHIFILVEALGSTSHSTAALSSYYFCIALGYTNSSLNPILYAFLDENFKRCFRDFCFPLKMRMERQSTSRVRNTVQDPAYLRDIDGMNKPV
Paired box protein Pax-8, sequence (Q06710 whole entry): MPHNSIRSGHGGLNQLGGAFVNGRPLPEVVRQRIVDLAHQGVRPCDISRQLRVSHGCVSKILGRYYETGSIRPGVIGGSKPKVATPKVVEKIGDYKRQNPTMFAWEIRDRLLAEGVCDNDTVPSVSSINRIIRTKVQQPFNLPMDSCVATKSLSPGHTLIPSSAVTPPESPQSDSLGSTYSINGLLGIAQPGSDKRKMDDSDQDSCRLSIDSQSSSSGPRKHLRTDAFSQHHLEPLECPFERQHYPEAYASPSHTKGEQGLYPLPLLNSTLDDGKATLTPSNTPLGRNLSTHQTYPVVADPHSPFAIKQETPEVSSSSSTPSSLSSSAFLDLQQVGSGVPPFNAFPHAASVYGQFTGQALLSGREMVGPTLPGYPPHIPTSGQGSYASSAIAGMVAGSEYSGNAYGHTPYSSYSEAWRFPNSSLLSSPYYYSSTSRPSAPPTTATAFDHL
Nonstructural protein 1, sequence (Q194T2 whole entry): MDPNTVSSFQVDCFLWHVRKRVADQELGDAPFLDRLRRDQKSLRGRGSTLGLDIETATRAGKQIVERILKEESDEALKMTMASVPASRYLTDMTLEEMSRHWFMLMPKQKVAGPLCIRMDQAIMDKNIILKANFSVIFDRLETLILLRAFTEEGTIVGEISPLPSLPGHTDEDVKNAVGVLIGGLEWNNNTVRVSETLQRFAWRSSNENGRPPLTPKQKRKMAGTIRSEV
Hexokinase HKDC1, sequence (Q2TB90 whole entry): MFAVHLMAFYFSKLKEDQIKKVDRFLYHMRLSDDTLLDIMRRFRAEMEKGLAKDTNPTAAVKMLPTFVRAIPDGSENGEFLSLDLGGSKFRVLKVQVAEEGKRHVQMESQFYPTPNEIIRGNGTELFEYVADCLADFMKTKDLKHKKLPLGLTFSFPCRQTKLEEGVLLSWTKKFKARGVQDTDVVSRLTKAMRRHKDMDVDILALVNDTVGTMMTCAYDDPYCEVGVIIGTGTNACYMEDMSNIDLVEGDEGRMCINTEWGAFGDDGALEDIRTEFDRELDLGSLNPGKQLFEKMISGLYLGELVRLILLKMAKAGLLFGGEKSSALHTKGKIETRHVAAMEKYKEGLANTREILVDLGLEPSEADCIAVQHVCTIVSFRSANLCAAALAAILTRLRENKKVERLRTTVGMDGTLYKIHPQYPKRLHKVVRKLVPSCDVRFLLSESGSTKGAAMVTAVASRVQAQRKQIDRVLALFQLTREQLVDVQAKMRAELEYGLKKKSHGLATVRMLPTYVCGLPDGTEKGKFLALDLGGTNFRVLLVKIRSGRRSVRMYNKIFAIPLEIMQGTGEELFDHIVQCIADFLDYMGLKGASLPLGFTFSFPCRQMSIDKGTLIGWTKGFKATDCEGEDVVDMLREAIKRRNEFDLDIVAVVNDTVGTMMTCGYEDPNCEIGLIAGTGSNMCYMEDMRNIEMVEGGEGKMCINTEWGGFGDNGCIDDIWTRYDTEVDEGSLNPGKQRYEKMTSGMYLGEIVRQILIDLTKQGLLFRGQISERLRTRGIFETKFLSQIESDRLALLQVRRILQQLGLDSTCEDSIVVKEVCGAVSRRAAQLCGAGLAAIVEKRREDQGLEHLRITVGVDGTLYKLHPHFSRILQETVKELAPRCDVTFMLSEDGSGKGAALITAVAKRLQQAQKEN
Ion channel NompC, sequence (Q7T1G6 whole entry): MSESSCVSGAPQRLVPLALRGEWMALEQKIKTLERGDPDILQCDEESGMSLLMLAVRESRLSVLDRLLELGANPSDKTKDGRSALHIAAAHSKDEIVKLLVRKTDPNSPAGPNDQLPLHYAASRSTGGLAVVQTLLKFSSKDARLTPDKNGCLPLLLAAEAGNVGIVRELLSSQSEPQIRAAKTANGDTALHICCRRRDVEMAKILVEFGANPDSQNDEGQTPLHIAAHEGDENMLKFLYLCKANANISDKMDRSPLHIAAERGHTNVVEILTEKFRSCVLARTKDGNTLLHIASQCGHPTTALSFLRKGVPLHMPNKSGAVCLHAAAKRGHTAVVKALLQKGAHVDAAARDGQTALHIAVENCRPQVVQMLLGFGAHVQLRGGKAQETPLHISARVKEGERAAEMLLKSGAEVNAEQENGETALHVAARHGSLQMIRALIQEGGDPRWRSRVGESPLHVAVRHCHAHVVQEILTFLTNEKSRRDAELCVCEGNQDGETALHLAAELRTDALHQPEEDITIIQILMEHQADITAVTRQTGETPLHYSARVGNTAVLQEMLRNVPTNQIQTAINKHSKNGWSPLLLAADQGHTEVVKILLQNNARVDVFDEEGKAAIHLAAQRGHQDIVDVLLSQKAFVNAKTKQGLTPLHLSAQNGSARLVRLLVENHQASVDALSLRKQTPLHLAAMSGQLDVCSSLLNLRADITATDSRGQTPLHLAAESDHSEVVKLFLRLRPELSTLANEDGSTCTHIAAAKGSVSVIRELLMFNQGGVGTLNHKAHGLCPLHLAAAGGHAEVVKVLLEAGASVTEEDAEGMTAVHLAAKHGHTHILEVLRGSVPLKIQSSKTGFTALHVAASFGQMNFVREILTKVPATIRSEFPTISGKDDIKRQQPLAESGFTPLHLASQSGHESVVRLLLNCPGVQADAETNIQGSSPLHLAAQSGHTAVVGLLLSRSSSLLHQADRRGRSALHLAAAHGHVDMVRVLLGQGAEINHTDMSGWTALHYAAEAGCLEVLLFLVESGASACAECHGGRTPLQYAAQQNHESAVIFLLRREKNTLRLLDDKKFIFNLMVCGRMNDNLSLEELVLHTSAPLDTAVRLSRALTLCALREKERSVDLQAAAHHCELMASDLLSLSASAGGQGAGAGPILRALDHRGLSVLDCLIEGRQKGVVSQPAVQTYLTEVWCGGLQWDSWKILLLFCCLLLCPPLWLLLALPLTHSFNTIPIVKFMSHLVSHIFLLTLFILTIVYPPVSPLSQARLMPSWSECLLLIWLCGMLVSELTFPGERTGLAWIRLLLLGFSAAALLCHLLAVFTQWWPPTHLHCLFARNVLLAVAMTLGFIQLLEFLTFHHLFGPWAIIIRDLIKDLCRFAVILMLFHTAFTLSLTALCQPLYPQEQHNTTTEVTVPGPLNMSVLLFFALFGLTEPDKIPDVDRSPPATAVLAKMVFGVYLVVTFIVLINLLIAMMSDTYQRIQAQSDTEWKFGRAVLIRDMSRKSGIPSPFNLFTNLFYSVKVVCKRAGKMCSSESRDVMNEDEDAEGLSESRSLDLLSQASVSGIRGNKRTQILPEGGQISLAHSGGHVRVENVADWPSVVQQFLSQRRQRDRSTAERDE

With `CCN(CC)S(=O)(=O)c1cc(OC)ccc1N=Nc1ccc(O)c2ncccc12` the EC50 (Streptococcus) was 8.84 µM (active), the IC50 (Nonstructural protein 1) was 11.7 µM (active) and the AC50 (Paired box protein Pax-8) was 1.27 µM (active). The AC50 (INS1) was 2.41 µM (active), the EC50 [1] was 0.524 µM (active) and the IC50 [2] was 15.7 µM (not active). For the same compound, the EC50 [3] was > 180 µM (inactive), the EC50 [4] was 96.3 µM (active) and the EC50 [5] was 13.5 µM (active). The EC50 [6] was 1.61 µM (active).
For `Cc1ccc(OCC(=O)Nc2ccc3c(c2)OCCO3)cc1C`, the EC50 [7] was > 100 µM (not active).
In the case of `Cc1ccc(S(=O)(=O)Nc2cc(C(F)(F)F)ccc2N2CCOCC2)c(C)c1`, the EC50 (Ion channel NompC) is reported as > 29.9 µM (not active) and the EC50 (Mucolipin-3) is reported as 2.48 µM (active).
For `Cc1cccc(C)c1Nc1nnc(SCc2cn3cccc(C)c3n2)s1`, the IC50 (Hexokinase HKDC1) was > 80 µM (inactive).
With `Cc1ccccc1NC(=O)c1ccc(Nc2c([N+](=O)[O-])cc([N+](=O)[O-])c3ccccc23)cc1` the EC50 [8] was 0.937 µM (active), the EC50 [9] was > 60 µM (inconclusive) and the IC50 [10] was 9.63 µM (active). The IC50 [11] was over 32 µM and the EC50 (Beta-galactosidase) was 11.3 µM (active).
